In patent US11130793B2, “GLP-1/GLP-2 dual agonists” (Zealand Pharma A/S, priority 2016, dated 2021):
Read-outs that look alike come from different tables or passages of the source. Square brackets hold non-standard residues; d marks the D form. Peptide text beside a SMILES is read from it. Aib = CC(C)(N)C(=O)O

Experiments:
human GLP-1 receptor = target: T1, human GLP-1 receptor (Homo sapiens, UniProt P43220); experiment: GLP-1 receptor potency assay (cAMP AlphaScreen, HEK293 cells stably expressing GLP-1R); type: cell-based; details: cAMP response, HEK293 cells expressing human GLP-1R; read-out: EC50 GLP-1
T1 construct: expressed in transfected cells
T1 sequence (P43220 24-463): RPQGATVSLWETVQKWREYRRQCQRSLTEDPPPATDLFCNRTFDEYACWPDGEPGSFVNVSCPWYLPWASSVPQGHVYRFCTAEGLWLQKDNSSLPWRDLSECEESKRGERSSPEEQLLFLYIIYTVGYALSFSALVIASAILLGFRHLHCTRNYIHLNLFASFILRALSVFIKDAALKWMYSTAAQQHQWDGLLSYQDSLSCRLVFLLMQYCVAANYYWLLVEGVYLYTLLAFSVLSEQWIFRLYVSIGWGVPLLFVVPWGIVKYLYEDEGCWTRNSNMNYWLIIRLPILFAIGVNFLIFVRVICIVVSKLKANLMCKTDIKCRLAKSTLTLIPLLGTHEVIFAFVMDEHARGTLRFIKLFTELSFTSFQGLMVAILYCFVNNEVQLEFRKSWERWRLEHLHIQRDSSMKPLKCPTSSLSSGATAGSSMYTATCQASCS
How it was run: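 A HEK293 clone stably expressing cloned human GLP-1R (G418-selected) was stimulated with compound. Intracellular cAMP was measured by AlphaScreen. Responses were normalized to positive and vehicle controls, and EC50 and maximal response were fitted by 4-parameter logistic regression.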

human GLP-2 receptor = target: T2, human GLP-2 receptor (Homo sapiens, UniProt O95838, D470N); experiment: GLP-2 receptor potency assay (cAMP AlphaScreen, HEK293 cells stably expressing GLP-2R); type: cell-based; details: cAMP response, HEK293 cells expressing human GLP-2R
T2 sequence (O95838 1-553 D470N): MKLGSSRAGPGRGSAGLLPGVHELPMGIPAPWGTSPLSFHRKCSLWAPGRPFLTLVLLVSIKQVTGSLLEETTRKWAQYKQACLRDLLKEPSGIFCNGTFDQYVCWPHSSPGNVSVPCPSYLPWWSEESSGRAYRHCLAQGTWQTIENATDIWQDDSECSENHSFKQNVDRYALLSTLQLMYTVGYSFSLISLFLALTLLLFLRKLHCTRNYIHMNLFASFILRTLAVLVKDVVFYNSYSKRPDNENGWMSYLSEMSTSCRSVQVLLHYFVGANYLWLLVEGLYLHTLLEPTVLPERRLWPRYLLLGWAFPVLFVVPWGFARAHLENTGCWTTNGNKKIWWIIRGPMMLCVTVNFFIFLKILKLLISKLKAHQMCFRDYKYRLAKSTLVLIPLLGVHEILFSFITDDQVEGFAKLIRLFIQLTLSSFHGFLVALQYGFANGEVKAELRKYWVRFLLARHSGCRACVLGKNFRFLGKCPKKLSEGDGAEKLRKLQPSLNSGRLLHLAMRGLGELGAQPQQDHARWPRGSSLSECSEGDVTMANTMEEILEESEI
How it was run: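 HEK293 cells stably expressing human GLP-2R (G418-selected clone); intracellular cAMP measured by AlphaScreen. Responses normalized to positive and vehicle controls; EC50 and maximal response from 4-parameter logistic fit.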

[1] = Solubility assessment by turbidity absorbance at 325 nm; type: physicochemical; details: 1 mg/ml peptide
Protocol: A stock solution of the test peptide (2 mg/ml; determined from the weighed amount of peptide) in demineralized water adjusted to pH 2.5 with HCl was prepared, and aliquots were diluted 1:1 in 100 mM acetate buffer (pH 4.0 and pH 5.0), 100 mM histidine buffer (pH 6.0 and pH 7.0) and 100 mM phosphate buffer (pH 6.0, pH 7.0 and pH7.5), respectively, and loaded in a standard flat-bottom, non-sterile 96-well UV Microplate. The absorbance of samples (single samples, n=1) at 280 and 325 nm was measured in an absorbance-based plate reader, which was preheated to ambient temperature (typically 25° C.).

[2] = tested on: Normal chow-fed C57BL/6J male mice; experiment: Effect on fasting glucose and intestinal weight in normal mice; type: in vivo; details: for Small intestinal wet weight: 250 nmol/kg s.c. once daily for 4 days, sacrificed 24 hours after final dosing; for Fasting blood glucose: day 0, fasted mice, after a single s.c. injection, 250 nmol/kg
Protocol: Normal chow-fed C57BL/6J male mice were used. The mice were kept in standard housing conditions, light-, temperature-, and humidity-controlled room (12:12 h light-dark cycle, with lights on at 06.00-18.00 h; 20-22° C.; 50-80% relative humidity). Each dosing group consisted of 6 animals. Mice were dosed once daily with 250 nmol/kg with the test compounds or vehicle for 4 days via subcutaneous administration.
On day 0 mice were fasted and blood glucose levels measured after a single s.c. injection with peptides. Animals were sacrificed 24 hours after final dosing on day 3, and small intestinal wet weights were measured.

**Q.** For `CC[C@H](C)[C@H](NC(=O)[C@H](Cc1ccccc1)NC(=O)[C@H](CC(=O)O)NC(=O)[C@H](CCCNC(=N)N)NC(=O)[C@H](C)NC(=O)[C@H](C)NC(=O)[C@H](CCC(N)=O)NC(=O)[C@H](CCC(=O)O)NC(=O)[C@H](CC(=O)O)NC(=O)[C@H](CC(C)C)NC(=O)[C@@H](NC(=O)[C@@H](NC(=O)[C@H](C)NC(=O)[C@H](CC(C)C)NC(=O)[C@H](CCC(=O)O)NC(=O)[C@H](CO)NC(=O)[C@@H](NC(=O)[C@H](Cc1ccccc1)NC(=O)[C@@H](NC(=O)CNC(=O)[C@H](CCC(=O)O)NC(=O)C(C)(C)NC(=O)[C@@H](N)Cc1c[nH]cn1)[C@@H](C)O)[C@@H](C)O)[C@@H](C)O)[C@@H](C)CC)C(=O)N[C@@H](C)C(=O)N[C@@H](Cc1c[nH]c2ccccc12)C(=O)N[C@@H](CC(C)C)C(=O)N[C@H](C(=O)N[C@@H](CCC(=O)O)C(=O)N[C@@H](Cc1c[nH]cn1)C(=O)N[C@@H](CCCCN)C(=O)N[C@H](C(=O)N[C@H](C(=O)N[C@@H](CC(=O)O)C(=O)O)[C@@H](C)O)[C@@H](C)CC)[C@@H](C)CC` [Compound 5] (H-H[Aib]EGTFTSELATILDEQAARDFIAWLIEHKITD-OH), which EC50 (human GLP-1 receptor) is on record?
**A.** The EC50 was 0.0098 nM.

**Q.** What about the EC50 (human GLP-2 receptor) of the same compound?
**A.** Its EC50 is 0.067 nM.

**Q.** And the solubility ([1]; 100 mM acetate buffer pH 4.0, ambient temperature, read-out: Solubility, Acetate buffer pH 4)?
**A.** The solubility was no less than 1000 µg/mL.

**Q.** And the solubility ([1]; 100 mM acetate buffer pH 5.0, ambient temperature, read-out: Solubility, Acetate buffer pH 5)?
**A.** Its solubility is less than 1000 µg/mL.

**Q.** What about the solubility ([1]; 100 mM histidine buffer pH 6.0, ambient temperature, read-out: Solubility, Histidine buffer pH 6) of the same compound?
**A.** Its solubility is no less than 1000 µg/mL.

**Q.** And the solubility ([1]; 100 mM histidine buffer pH 7.0, ambient temperature, read-out: Solubility, Histidine buffer pH 7)?
**A.** The solubility was no less than 1000 µg/mL.

**Q.** What about the solubility ([1]; 100 mM phosphate buffer pH 6.0, ambient temperature, read-out: Solubility, Phosphate buffer pH 6) of the same compound?
**A.** Its solubility is no less than 1000 µg/mL.

**Q.** And the solubility ([1]; 100 mM phosphate buffer pH 7.0, ambient temperature, read-out: Solubility, Phosphate buffer pH 7)?
**A.** The solubility was no less than 1000 µg/mL.

**Q.** What about the solubility ([1]; 100 mM phosphate buffer pH 7.5, ambient temperature, read-out: Solubility, Phosphate buffer pH 7.5) of the same compound?
**A.** Its solubility is no less than 1000 µg/mL.

**Q.** And the “Small intestinal wet weight” value [2]?
**A.** Its value is 0.90 g.

**Q.** What about the Fasting blood glucose [2] of the same compound?
**A.** The Fasting blood glucose was 5.43 mM.

**Q.** For `CC[C@H](C)[C@H](NC(=O)[C@H](CC(C)C)NC(=O)[C@H](Cc1c[nH]c2ccccc12)NC(=O)[C@H](CO)NC(=O)[C@@H](NC(=O)[C@H](Cc1ccccc1)NC(=O)[C@H](CC(=O)O)NC(=O)[C@H](CCCNC(=N)N)NC(=O)[C@H](C)NC(=O)[C@H](C)NC(=O)[C@H](CCC(N)=O)NC(=O)[C@H](CCC(=O)O)NC(=O)[C@H](CC(=O)O)NC(=O)[C@H](CC(C)C)NC(=O)[C@@H](NC(=O)[C@@H](NC(=O)[C@H](C)NC(=O)[C@H](CC(C)C)NC(=O)[C@H](CCC(=O)O)NC(=O)[C@H](CO)NC(=O)[C@@H](NC(=O)[C@H](Cc1ccccc1)NC(=O)[C@@H](NC(=O)CNC(=O)[C@H](CCC(=O)O)NC(=O)C(C)(C)NC(=O)[C@@H](N)Cc1c[nH]cn1)[C@@H](C)O)[C@@H](C)O)[C@@H](C)O)[C@@H](C)CC)[C@@H](C)CC)C(=O)N[C@@H](C)C(=O)N[C@@H](Cc1c[nH]cn1)C(=O)N[C@@H](CCCCN)C(=O)N[C@H](C(=O)N[C@H](C(=O)N[C@@H](CC(=O)O)C(=O)O)[C@@H](C)O)[C@@H](C)CC` [Compound 34] (H-H[Aib]EGTFTSELATILDEQAARDFISWLIAHKITD-OH), which EC50 (human GLP-1 receptor) is on record?
**A.** Its EC50 is 0.005 nM.

**Q.** What about the EC50 (human GLP-2 receptor) of the same compound?
**A.** Its EC50 is 0.049 nM.

**Q.** What about the “Small intestinal wet weight” value [2] of the same compound?
**A.** The value was 0.93 g.

**Q.** What about the Fasting blood glucose [2] of the same compound?
**A.** The Fasting blood glucose was 5.62 mM.

**Q.** Which EC50 (human GLP-1 receptor) does the source give for `CC[C@H](C)[C@H](NC(=O)[C@H](Cc1ccccc1)NC(=O)[C@H](CC(=O)O)NC(=O)[C@H](CCCNC(=N)N)NC(=O)[C@H](C)NC(=O)[C@H](C)NC(=O)[C@H](CCC(N)=O)NC(=O)[C@H](CCC(=O)O)NC(=O)[C@H](CC(=O)O)NC(=O)[C@H](CC(C)C)NC(=O)[C@@H](NC(=O)[C@@H](NC(=O)[C@H](C)NC(=O)[C@H](CC(C)C)NC(=O)[C@H](CCC(=O)O)NC(=O)[C@H](CO)NC(=O)[C@@H](NC(=O)[C@H](Cc1ccccc1)NC(=O)[C@@H](NC(=O)CNC(=O)[C@H](CCC(=O)O)NC(=O)C(C)(C)NC(=O)[C@@H](N)Cc1c[nH]cn1)[C@@H](C)O)[C@@H](C)O)[C@@H](C)O)[C@@H](C)CC)C(=O)N[C@@H](C)C(=O)N[C@@H](Cc1c[nH]c2ccccc12)C(=O)N[C@@H](CC(C)C)C(=O)N[C@@H](CCC(N)=O)C(=O)N[C@@H](C)C(=O)N[C@@H](CCC(N)=O)C(=O)N[C@@H](CCCCN)C(=O)N[C@H](C(=O)N[C@H](C(=O)N[C@@H](CC(=O)O)C(=O)O)[C@@H](C)O)[C@@H](C)CC` [Compound 26] (H-H[Aib]EGTFTSELATILDEQAARDFIAWLQAQKITD-OH) here?
**A.** The EC50 was 0.013 nM.

**Q.** What about the EC50 (human GLP-2 receptor) of the same compound?
**A.** The EC50 was 0.19 nM.

**Q.** And the “Small intestinal wet weight” value [2]?
**A.** Its value is 0.78 g.

**Q.** And the Fasting blood glucose [2]?
**A.** Its Fasting blood glucose is 5.70 mM.

**Q.** With `CC[C@H](C)[C@H](NC(=O)[C@H](Cc1ccccc1)NC(=O)[C@H](CC(=O)O)NC(=O)[C@H](CCCNC(=N)N)NC(=O)[C@H](C)NC(=O)[C@H](C)NC(=O)[C@H](CCC(N)=O)NC(=O)[C@H](CCC(=O)O)NC(=O)[C@H](CC(=O)O)NC(=O)[C@H](CC(C)C)NC(=O)[C@@H](NC(=O)[C@@H](NC(=O)[C@H](C)NC(=O)[C@H](CC(C)C)NC(=O)[C@H](CCC(=O)O)NC(=O)[C@H](CO)NC(=O)[C@@H](NC(=O)[C@H](Cc1ccccc1)NC(=O)[C@H](CO)NC(=O)CNC(=O)[C@H](CCC(=O)O)NC(=O)C(C)(C)NC(=O)[C@@H](N)Cc1c[nH]cn1)[C@@H](C)O)[C@@H](C)O)[C@@H](C)CC)C(=O)N[C@@H](C)C(=O)N[C@@H](Cc1c[nH]c2ccccc12)C(=O)N[C@@H](CC(C)C)C(=O)N[C@@H](Cc1c[nH]cn1)C(=O)N[C@@H](C)C(=O)N[C@@H](Cc1c[nH]cn1)C(=O)N[C@@H](CCCCN)C(=O)N[C@H](C(=O)N[C@H](C(=O)N[C@@H](CC(=O)O)C(=O)O)[C@@H](C)O)[C@@H](C)CC` [Compound 22] (H-H[Aib]EGSFTSELATILDEQAARDFIAWLHAHKITD-OH) as the compound, how does the EC50 (human GLP-1 receptor) read?
**A.** Its EC50 is 0.28 nM.

**Q.** What about the EC50 (human GLP-2 receptor) of the same compound?
**A.** Its EC50 is 0.042 nM.

**Q.** And the “Small intestinal wet weight” value [2]?
**A.** The value was 0.82 g.

**Q.** And the Fasting blood glucose [2]?
**A.** The Fasting blood glucose was 6.18 mM.

**Q.** Which EC50 (human GLP-1 receptor) does the source give for `CC[C@H](C)[C@H](NC(=O)[C@H](Cc1ccccc1)NC(=O)[C@H](CC(=O)O)NC(=O)[C@H](CCCNC(=N)N)NC(=O)[C@H](C)NC(=O)[C@H](C)NC(=O)[C@H](CCC(N)=O)NC(=O)[C@H](CCC(=O)O)NC(=O)[C@H](CC(=O)O)NC(=O)[C@H](CC(C)C)NC(=O)[C@@H](NC(=O)[C@@H](NC(=O)[C@H](C)NC(=O)[C@H](CC(C)C)NC(=O)[C@H](CCC(=O)O)NC(=O)[C@H](CO)NC(=O)[C@@H](NC(=O)[C@H](Cc1ccccc1)NC(=O)[C@@H](NC(=O)CNC(=O)[C@H](CCC(=O)O)NC(=O)C(C)(C)NC(=O)[C@@H](N)Cc1c[nH]cn1)[C@@H](C)O)[C@@H](C)O)[C@@H](C)O)[C@@H](C)CC)C(=O)N[C@@H](CC(N)=O)C(=O)N[C@@H](Cc1c[nH]c2ccccc12)C(=O)N[C@@H](CC(C)C)C(=O)N[C@@H](CCCCN)C(=O)N[C@@H](C)C(=O)N[C@@H](Cc1c[nH]cn1)C(=O)N[C@@H](CCCCN)C(=O)N[C@H](C(=O)N[C@H](C(=O)N[C@@H](CC(=O)O)C(=O)O)[C@@H](C)O)[C@@H](C)CC` [Compound 35] (H-H[Aib]EGTFTSELATILDEQAARDFINWLKAHKITD-OH) here?
**A.** The EC50 was 0.006 nM.

**Q.** And the EC50 (human GLP-2 receptor)?
**A.** The EC50 was 0.048 nM.

**Q.** And the “Small intestinal wet weight” value [2]?
**A.** The value was 0.81 g.

**Q.** What about the Fasting blood glucose [2] of the same compound?
**A.** The Fasting blood glucose was 5.95 mM.
